In patent publication US10869871B2, “Compositions and methods of modulating short-chain dehydrogenase activity” (CASE WESTERN RESERVE UNIVERSITY, priority 2013, dated 2020):

Columns and labels:
[1] = system: A549 cells; experiment: PGE2 levels in medium of IL1-beta stimulated A549 cells; assay type: cell-based
[2] = Hepatocyte stability; assay type: in vitro ADME; conditions: compound in presence of hepatocytes in culture; in words
Description: Time to inhibition refers to the time needed to inhibit the generation of NADH by 15-PGDH from the moment with drug is added into the reaction mix. Delta Tm refers to the shift in melting temperature of recombinant 15-PGDH in the presence of drug (with cofactor NADH also present). Concentration of Full Cell Line Reporter Induction refers to the concentration of drug that needs to be added to reporter cell line to achieve maximal induction of the 15-PGDH-luciferase gene fusion reporter cassette, as measured by luciferase assays. Hepatocyte stability refers to the half-life of compound in the presence of hepatocytes in culture. Toxicity refers to the concentration of compound needed to decrease cell numbers in a cell culture assay.

[3] = system: bone marrow; experiment: Bone marrow analysis of C57BL/6J mice treated IP; assay type: in vivo, mouse; conditions: IP 5 mg/kg or 20 mg/kg
Source text: FIGS. […] Experimental conditions are noted on the figure.

[4] = system: bone marrow; experiment: Competitive bone marrow transplant chimerism (CD45.2 donor treated); assay type: in vivo, mouse; conditions: donor 5 mg/kg IP daily for 3 doses; weeks 12 and 16
Description: On day 3 mice were sacrificed, marrow flushed and mixed at a 1:1 ratio with vehicle treated CD45.1 marrow. 2 million whole BM cells were injected into the tail vein of lethally irradiated CD45.1 mice and percent chimerism measured via flow cytometry at weeks 8, 12, 16.

[5] = Survival of 11Gy irradiated C57BL/6J mice receiving bone marrow allograft; assay type: in vivo, mouse; conditions: 5 mg/kg IP bid
Source text: The experimental design is depicted in FIG. 50.
Under the conditions of the mouse colony during this study, control mice receiving 100,000-500,000 cells are all dead between days 4-13 of study. […] Such activity would be of particular utility in settings, such as transplantation with umbilical cord stem cells, in which donor cell numbers are limited.

[6] = system: liver; experiment: Liver regeneration after partial hepatectomy, C57BL/6J mice; assay type: in vivo; conditions: 5 mg/kg IP bid, one mouse each
[7] = Survival after acetaminophen (Tylenol) LD50 dose 600 mg/kg IP; assay type: in vivo, mouse; conditions: for number of mice surviving: first dose immediately after Tylenol injection;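 on all read-outs here: controls were mice given only vehicle, dosed once or twice per day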
[8] = Survival of lethally irradiated mice after bone marrow transplant (30 days); assay type: in vivo, mouse; conditions: 5 mg/kg IP bid
Source text: A matched control cohort received injections with vehicle only. On day one mice received an infusion of donor marrow at doses of 100,000 cells; 200,000 cells; or 500,000 cells. […] Among mice receiving 200,000 donor cells, all control mice were dead by day 12.

For `CCCC[S+]([O-])c1sc2nc(-c3cccs3)cc(-c3ccccc3)c2c1N` (centres unmarked) [SW033291, 2-(butylsulfinyl)-4-phenyl-6-(thiophen-2-yl)thieno[2,3-b]pyridin-3-amine], the “rank of PGE2 level in medium” value ([1]; 100 nM concentration of drug) was “next highest level of PGE2”, the “PGE2 level in medium, reflecting 15-PGDH activity” value ([1]; IL1-beta 23 hours, compound added for last 5 hours) was “clear inhibition of 15-PGDH activity” and the “highest PGE2 level achieved in medium” value ([1]; IL-1β 16 h, compound 8 h) was 3000 pg/mL. For the same molecule, the Hepatocyte stability [2] was “Stable > couple hrs”, the “percent of Sca1+/c-Kit+ lineage negative (SKL) cells” value [3] was “unchanged” and the “percent blood chimerism of CD45.2 marked cells” value [4] was “significantly increased”. The “number of surviving mice” value ([5]; 1 × 10^5 donor cells, Day 0) was 3, the “number of surviving mice” value ([5]; 1 × 10^5 donor cells, Day 1) was 3 and the “number of surviving mice” value ([5]; 1 × 10^5 donor cells, Day 2) was 3. The “number of surviving mice” value ([5]; 1 × 10^5 donor cells, Day 3) was 3, the “number of surviving mice” value ([5]; 1 × 10^5 donor cells, Day 4) was 2 and the “number of surviving mice” value ([5]; 1 × 10^5 donor cells, Day 5) was 1. The “number of surviving mice” value ([5]; 1 × 10^5 donor cells, Day 6) was 0, the “number of surviving mice” value ([5]; 2 × 10^5 donor cells, Day 0) was 3 and the “number of surviving mice” value ([5]; 2 × 10^5 donor cells, Day 1) was 3. For the same molecule, the “number of surviving mice” value ([5]; 2 × 10^5 donor cells, Day 2) was 3, the “number of surviving mice” value ([5]; 2 × 10^5 donor cells, Day 3) was 3 and the “number of surviving mice” value ([5]; 2 × 10^5 donor cells, Day 4) was 3. For the same molecule, the “number of surviving mice” value ([5]; 2 × 10^5 donor cells, Day 5) was 3, the “number of surviving mice” value ([5]; 2 × 10^5 donor cells, Day 6) was 2 and the “number of surviving mice” value ([5]; 2 × 10^5 donor cells, Day 7) was 2. For the same molecule, the “number of surviving mice” value ([5]; 2 × 10^5 donor cells, Day 8) was 2, the “number of surviving mice” value ([5]; 2 × 10^5 donor cells, Day 9) was 2 and the “number of surviving mice” value ([5]; 2 × 10^5 donor cells, Day 10) was 2. The “number of surviving mice” value ([5]; 2 × 10^5 donor cells, Day 11) was 2, the “number of surviving mice” value ([5]; 2 × 10^5 donor cells, Day 12) was 1 and the “number of surviving mice” value ([5]; 2 × 10^5 donor cells, Day 13) was 0. For the same molecule, the “number of surviving mice” value ([5]; 5 × 10^5 donor cells, Day 0) was 3, the “number of surviving mice” value ([5]; 5 × 10^5 donor cells, Day 1) was 3 and the “number of surviving mice” value ([5]; 5 × 10^5 donor cells, Day 2) was 3. For the same molecule, the “number of surviving mice” value ([5]; 5 × 10^5 donor cells, Day 3) was 3, the “number of surviving mice” value ([5]; 5 × 10^5 donor cells, Day 4) was 3 and the “number of surviving mice” value ([5]; 5 × 10^5 donor cells, Day 5) was 3. The “number of surviving mice” value ([5]; 5 × 10^5 donor cells, Day 6) was 3, the “number of surviving mice” value ([5]; 5 × 10^5 donor cells, Day 7) was 3 and the “number of surviving mice” value ([5]; 5 × 10^5 donor cells, Day 8) was 2. The “number of surviving mice” value ([5]; 5 × 10^5 donor cells, Day 9) was 2, the “number of surviving mice” value ([5]; 5 × 10^5 donor cells, Day 10) was 2 and the “number of surviving mice” value ([5]; 5 × 10^5 donor cells, Day 11) was 2. For the same molecule, the “number of surviving mice” value ([5]; 5 × 10^5 donor cells, Day 12) was 2, the “number of surviving mice” value ([5]; 5 × 10^5 donor cells, Day 13) was 2 and the “number of surviving mice” value ([5]; 5 × 10^5 donor cells, Day 19) was 2. The “serum ALT levels versus control” value [6] was “lower”, the survival versus control ([7]; 5 mg/kg IP beginning immediately following acetaminophen, once or twice daily, through 120 hours) was “No difference” and the “Survival (number of mice)” value ([7]; 5 mg/kg IP bid from 3 hours prior to acetaminophen, 6 doses, cohort of 6, 0 hrs) was 6. For the same molecule, the “Survival (number of mice)” value ([7]; 5 mg/kg IP bid from 3 hours prior to acetaminophen, 6 doses, cohort of 6, 16 hr) was 6, the “Survival (number of mice)” value ([7]; 5 mg/kg IP bid from 3 hours prior to acetaminophen, 6 doses, cohort of 6, 24 hrs) was 5 and the “Survival (number of mice)” value ([7]; 5 mg/kg IP bid from 3 hours prior to acetaminophen, 6 doses, cohort of 6, 48 hrs) was 3. For the same molecule, the “Survival (number of mice)” value ([7]; 5 mg/kg IP bid from 3 hours prior to acetaminophen, 6 doses, cohort of 6, 64 hrs) was 3, the “Survival (number of mice)” value ([7]; 5 mg/kg IP bid from 3 hours prior to acetaminophen, 6 doses, cohort of 6, 72 hrs) was 3 and the “Survival (number of mice)” value ([7]; 5 mg/kg IP bid from 3 hours prior to acetaminophen, 6 doses, cohort of 6, 88 hr) was 3. The “Survival (number of mice)” value ([7]; 5 mg/kg IP bid from 3 hours prior to acetaminophen, 6 doses, cohort of 6, 96 hr) was 3, the “Survival (number of mice)” value ([7]; 5 mg/kg IP bid from 3 hours prior to acetaminophen, 6 doses, cohort of 6, 112 hr) was 3 and the “Survival (number of mice)” value ([7]; 5 mg/kg IP bid from 3 hours prior to acetaminophen, 6 doses, cohort of 6, 120 hr) was 3. For the same molecule, the “Survival (number of mice)” value ([7]; 5 mg/kg IP bid from 48 hours prior to acetaminophen, 9 doses, cohort of 12, 0 hrs) was 12, the “Survival (number of mice)” value ([7]; 5 mg/kg IP bid from 48 hours prior to acetaminophen, 9 doses, cohort of 12, 16 hr) was 12 and the “Survival (number of mice)” value ([7]; 5 mg/kg IP bid from 48 hours prior to acetaminophen, 9 doses, cohort of 12, 24 hrs) was 12. For the same molecule, the “Survival (number of mice)” value ([7]; 5 mg/kg IP bid from 48 hours prior to acetaminophen, 9 doses, cohort of 12, 40 hrs) was 11, the “Survival (number of mice)” value ([7]; 5 mg/kg IP bid from 48 hours prior to acetaminophen, 9 doses, cohort of 12, 48 hrs) was 10 and the “Survival (number of mice)” value ([7]; 5 mg/kg IP bid from 48 hours prior to acetaminophen, 9 doses, cohort of 12, 64 hrs) was 10. For the same molecule, the “Survival (number of mice)” value ([7]; 5 mg/kg IP bid from 48 hours prior to acetaminophen, 9 doses, cohort of 12, 72 hrs) was 10, the “Survival (number of mice)” value ([7]; 5 mg/kg IP bid from 48 hours prior to acetaminophen, 9 doses, cohort of 12, 88 hr) was 10 and the “Survival (number of mice)” value ([7]; 5 mg/kg IP bid from 48 hours prior to acetaminophen, 9 doses, cohort of 12, 96 hr) was 10. For the same molecule, the “Survival (number of mice)” value ([7]; 5 mg/kg IP bid from 48 hours prior to acetaminophen, 9 doses, cohort of 12, 112 hr) was 10, the “Survival (number of mice)” value ([7]; 5 mg/kg IP bid from 48 hours prior to acetaminophen, 9 doses, cohort of 12, 120 hr) was 10 and the “number of mice surviving” value ([7]; 1 dose daily, cohort of 6, 0 hrs) was 6. The “number of mice surviving” value ([7]; 1 dose daily, cohort of 6, 16 hr) was 6, the “number of mice surviving” value ([7]; 1 dose daily, cohort of 6, 24 hrs) was 6 and the “number of mice surviving” value ([7]; 2 dose daily, cohort of 6, 0 hrs) was 6. The “number of mice surviving” value ([7]; 2 dose daily, cohort of 6, 16 hr) was 6, the “number of mice surviving” value ([7]; 2 dose daily, cohort of 6, 24 hrs) was 6 and the “number of mice surviving” value ([7]; 2 dose daily, cohort of 6, 48 hrs) was 3. The “number of mice surviving” value ([7]; 2 dose daily, cohort of 6, 64 hrs) was 3, the “number of mice surviving” value ([7]; 2 dose daily, cohort of 6, 72 hrs) was 3 and the “number of mice surviving” value ([7]; 2 dose daily, cohort of 6, 88 hr) was 3. The “number of mice surviving” value ([7]; 2 dose daily, cohort of 6, 96 hr) was 3, the “number of mice surviving” value ([7]; 2 dose daily, cohort of 6, 112 hr) was 3 and the “number of mice surviving” value ([7]; 2 dose daily, cohort of 6, 120 hr) was 3. The “median survival versus control” value ([8]; 100,000 donor cells) was “approximate doubling of median survival” and the “survival at 30 days” value ([8]; 500,000 donor cells) was “all survived”.
